In BigSolDB 2.1:

Compound: O=C(O)c1cccc(O)c1O
- solubility (mole fraction) (in acetone, 278.15 K): 0.0969
- solubility (mole fraction) (in acetone, 283.15 K): 0.0987
- solubility (mole fraction) (in acetone, 288.15 K): 0.101
- solubility (mole fraction) (in acetone, 293.15 K): 0.105
- solubility (mole fraction) (in acetone, 298.15 K): 0.108
- solubility (mole fraction) (in acetone, 303.15 K): 0.113
- solubility (mole fraction) (in acetone, 308.15 K): 0.116
- solubility (mole fraction) (in acetone, 313.15 K): 0.121
- solubility (mole fraction) (in acetone, 318.15 K): 0.127
- solubility (mole fraction) (in acetonitrile, 278.15 K): 0.00923
- solubility (mole fraction) (in acetonitrile, 283.15 K): 0.0101
- solubility (mole fraction) (in acetonitrile, 288.15 K): 0.0108
- solubility (mole fraction) (in acetonitrile, 293.15 K): 0.0115
- solubility (mole fraction) (in acetonitrile, 298.15 K): 0.013
- solubility (mole fraction) (in acetonitrile, 303.15 K): 0.0147
- solubility (mole fraction) (in acetonitrile, 308.15 K): 0.0158
- solubility (mole fraction) (in acetonitrile, 313.15 K): 0.0174
- solubility (mole fraction) (in acetonitrile, 318.15 K): 0.0198
- solubility (mole fraction) (in ethanol, 278.15 K): 0.0838
- solubility (mole fraction) (in ethanol, 283.15 K): 0.0855
- solubility (mole fraction) (in ethanol, 288.15 K): 0.0884
- solubility (mole fraction) (in ethanol, 293.15 K): 0.0907
- solubility (mole fraction) (in ethanol, 298.15 K): 0.0944
- solubility (mole fraction) (in ethanol, 303.15 K): 0.0973
- solubility (mole fraction) (in ethanol, 308.15 K): 0.101
- solubility (mole fraction) (in ethanol, 313.15 K): 0.105
- solubility (mole fraction) (in ethanol, 318.15 K): 0.11
- solubility (mole fraction) (in ethyl acetate, 278.15 K): 0.0459
- solubility (mole fraction) (in ethyl acetate, 283.15 K): 0.048
- solubility (mole fraction) (in ethyl acetate, 288.15 K): 0.0513
- solubility (mole fraction) (in ethyl acetate, 293.15 K): 0.0547
- solubility (mole fraction) (in ethyl acetate, 298.15 K): 0.059
- solubility (mole fraction) (in ethyl acetate, 303.15 K): 0.0613
- solubility (mole fraction) (in ethyl acetate, 308.15 K): 0.066
- solubility (mole fraction) (in ethyl acetate, 313.15 K): 0.0719
- solubility (mole fraction) (in ethyl acetate, 318.15 K): 0.0761
- solubility (mole fraction) (in ethyl formate, 278.15 K): 0.0232
- solubility (mole fraction) (in ethyl formate, 283.15 K): 0.0245
- solubility (mole fraction) (in ethyl formate, 288.15 K): 0.0258
- solubility (mole fraction) (in ethyl formate, 293.15 K): 0.0277
- solubility (mole fraction) (in ethyl formate, 298.15 K): 0.0301
- solubility (mole fraction) (in ethyl formate, 303.15 K): 0.0321
- solubility (mole fraction) (in ethyl formate, 308.15 K): 0.0351
- solubility (mole fraction) (in ethyl formate, 313.15 K): 0.0374
- solubility (mole fraction) (in ethyl formate, 318.15 K): 0.0411
- solubility (mole fraction) (in isopentanol, 278.15 K): 0.0569
- solubility (mole fraction) (in isopentanol, 283.15 K): 0.0605
- solubility (mole fraction) (in isopentanol, 288.15 K): 0.064
- solubility (mole fraction) (in isopentanol, 293.15 K): 0.067
- solubility (mole fraction) (in isopentanol, 298.15 K): 0.0709
- solubility (mole fraction) (in isopentanol, 303.15 K): 0.0744
- solubility (mole fraction) (in isopentanol, 308.15 K): 0.0803
- solubility (mole fraction) (in isopentanol, 313.15 K): 0.0859
- solubility (mole fraction) (in isopentanol, 318.15 K): 0.0904
- solubility (mole fraction) (in isopropanol, 278.15 K): 0.0697
- solubility (mole fraction) (in isopropanol, 283.15 K): 0.0727
- solubility (mole fraction) (in isopropanol, 288.15 K): 0.0764
- solubility (mole fraction) (in isopropanol, 293.15 K): 0.0824
- solubility (mole fraction) (in isopropanol, 298.15 K): 0.0879
- solubility (mole fraction) (in isopropanol, 303.15 K): 0.0902
- solubility (mole fraction) (in isopropanol, 308.15 K): 0.0976
- solubility (mole fraction) (in isopropanol, 313.15 K): 0.103
- solubility (mole fraction) (in isopropanol, 318.15 K): 0.11
- solubility (mole fraction) (in isopropyl acetate, 278.15 K): 0.0426
- solubility (mole fraction) (in isopropyl acetate, 283.15 K): 0.045
- solubility (mole fraction) (in isopropyl acetate, 288.15 K): 0.0494
- solubility (mole fraction) (in isopropyl acetate, 293.15 K): 0.0532
- solubility (mole fraction) (in isopropyl acetate, 298.15 K): 0.0568
- solubility (mole fraction) (in isopropyl acetate, 303.15 K): 0.0602
- solubility (mole fraction) (in isopropyl acetate, 308.15 K): 0.0644
- solubility (mole fraction) (in isopropyl acetate, 313.15 K): 0.0696
- solubility (mole fraction) (in isopropyl acetate, 318.15 K): 0.0728
- solubility (mole fraction) (in methyl acetate, 278.15 K): 0.0466
- solubility (mole fraction) (in methyl acetate, 283.15 K): 0.0493
- solubility (mole fraction) (in methyl acetate, 288.15 K): 0.0529
- solubility (mole fraction) (in methyl acetate, 293.15 K): 0.0571
- solubility (mole fraction) (in methyl acetate, 298.15 K): 0.0594
- solubility (mole fraction) (in methyl acetate, 303.15 K): 0.0621
- solubility (mole fraction) (in methyl acetate, 308.15 K): 0.0665
- solubility (mole fraction) (in methyl acetate, 313.15 K): 0.0726
- solubility (mole fraction) (in methyl acetate, 318.15 K): 0.0764
- solubility (mole fraction) (in n-butanol, 278.15 K): 0.0653
- solubility (mole fraction) (in n-butanol, 283.15 K): 0.0683
- solubility (mole fraction) (in n-butanol, 288.15 K): 0.0706
- solubility (mole fraction) (in n-butanol, 293.15 K): 0.0737
- solubility (mole fraction) (in n-butanol, 298.15 K): 0.0766
- solubility (mole fraction) (in n-butanol, 303.15 K): 0.0806
- solubility (mole fraction) (in n-butanol, 308.15 K): 0.0853
- solubility (mole fraction) (in n-butanol, 313.15 K): 0.0903
- solubility (mole fraction) (in n-butanol, 318.15 K): 0.0952
- solubility (mole fraction) (in n-propanol, 278.15 K): 0.0664
- solubility (mole fraction) (in n-propanol, 283.15 K): 0.07
- solubility (mole fraction) (in n-propanol, 288.15 K): 0.0727
- solubility (mole fraction) (in n-propanol, 293.15 K): 0.0761
- solubility (mole fraction) (in n-propanol, 298.15 K): 0.0788
- solubility (mole fraction) (in n-propanol, 303.15 K): 0.084
- solubility (mole fraction) (in n-propanol, 308.15 K): 0.0873
- solubility (mole fraction) (in n-propanol, 313.15 K): 0.0915
- solubility (mole fraction) (in n-propanol, 318.15 K): 0.0977
- solubility (mole fraction) (in n-propyl acetate, 278.15 K): 0.0454
- solubility (mole fraction) (in n-propyl acetate, 283.15 K): 0.048
- solubility (mole fraction) (in n-propyl acetate, 288.15 K): 0.0504
- solubility (mole fraction) (in n-propyl acetate, 293.15 K): 0.0534
- solubility (mole fraction) (in n-propyl acetate, 298.15 K): 0.0564
- solubility (mole fraction) (in n-propyl acetate, 303.15 K): 0.0581
- solubility (mole fraction) (in n-propyl acetate, 308.15 K): 0.0615
- solubility (mole fraction) (in n-propyl acetate, 313.15 K): 0.0672
- solubility (mole fraction) (in n-propyl acetate, 318.15 K): 0.0721
